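Each compound was tested at five concentrations against cells in 96-well plates for 48 hours. GI50 marks 50% less growth. TGI: concentration producing complete growth inhibition.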
Assays:
Experiment in all cases: growth of human tumour cells (NCI), 48 h
[1] = tested on: HOP-62 NSCLC
[2] = tested on: OVCAR-3 ovarian
[3] = tested on: MOLT-4 leukemia
[4] = tested on: TK-10 renal
[5] = tested on: SN12C renal
[6] = tested on: U251 CNS
[7] = tested on: CAKI-1 renal
[8] = tested on: ACHN renal
[9] = tested on: SR leukemia
[10] = tested on: HT29 colon
[11] = tested on: HCT-116 colon
[12] = tested on: 786-0 renal
[13] = tested on: HS 578T breast
[14] = tested on: UACC-257 melanoma
[15] = tested on: HCT-15 colon
[16] = tested on: RPMI-8226 leukemia
[17] = tested on: MALME-3M melanoma
[18] = tested on: NCI-H226 lung
[19] = tested on: NCI-H522 lung
[20] = tested on: OVCAR-4 ovarian
[21] = tested on: NCI-H460 lung
[22] = tested on: PC-3 prostate
[23] = tested on: A498 renal
[24] = tested on: OVCAR-5 ovarian
[25] = tested on: A549 NSCLC
[26] = tested on: HOP-92 NSCLC
[27] = tested on: SNB-19 CNS
[28] = tested on: OVCAR-8 ovarian
[29] = tested on: M14 melanoma
[30] = tested on: COLO 205 colon
[31] = tested on: EKVX NSCLC
[32] = tested on: K-562 leukemia
[33] = tested on: SNB-75 CNS
[34] = tested on: HCC-2998 colon
[35] = tested on: SF-268 CNS
[36] = tested on: SW-620 colon
[37] = tested on: UACC-62 melanoma
[38] = tested on: HL-60(TB) leukemia
[39] = tested on: SF-539 CNS
[40] = tested on: BT-549 breast
[41] = tested on: RXF 393 renal
[42] = tested on: SK-OV-3 ovarian
[43] = tested on: SK-MEL-5 melanoma
[44] = tested on: LOX IMVI melanoma
[45] = tested on: DU-145 prostate
[46] = tested on: KM12 colon
[47] = tested on: NCI-H23 lung
[48] = tested on: MDA-MB-231 breast
[49] = tested on: SK-MEL-2 melanoma
[50] = tested on: CCRF-CEM leukemia
[51] = tested on: SF-295 CNS
[52] = tested on: MDA-MB-435
[53] = tested on: MCF7 breast
[54] = tested on: UO-31 renal
[55] = tested on: T-47D breast
[56] = tested on: IGROV1 ovarian
[57] = tested on: SK-MEL-28 melanoma
[58] = tested on: NCI/ADR-RES ovarian

Work on `COc1cc(/C=C\c2cc(/C=C\c3ccc(O)c(OC)c3)n(C(=O)COc3ccccc3)n2)ccc1O` yielded a GI50 [1] of 1.08 µM, a TGI [1] of 4.95 µM and a GI50 [2] of 0.552 µM. It also gave a TGI [2] of 2.77 µM, a GI50 [3] of 0.368 µM and a TGI [3] of 3.26 µM. For the same compound, the GI50 [4] was 2.91 µM, the TGI [4] was 10.9 µM and the GI50 [5] was 0.799 µM. For the same compound, the TGI [5] was 7.66 µM, the GI50 [6] was 0.564 µM and the TGI [6] was 5.96 µM. It also gave a GI50 [7] of 0.657 µM, a TGI [7] of 12.4 µM and a GI50 [8] of 0.49 µM. The TGI [8] was 11.1 µM, the GI50 [9] was 0.318 µM and the TGI [9] was 2.46 µM. The GI50 [10] was 2.67 µM, the TGI [10] was 6.35 µM and the GI50 [11] was 0.386 µM. It also gave a TGI [11] of 10 µM, a GI50 [12] of 1.06 µM and a TGI [12] of 3.58 µM. The GI50 [13] was 1.12 µM, the TGI [13] was 6.84 µM and the GI50 [14] was 2.21 µM. The TGI [14] was 7.34 µM, the GI50 [15] was 0.416 µM and the TGI [15] was 7.96 µM. The GI50 [16] was 0.377 µM, the TGI [16] was 2.36 µM and the GI50 [17] was 0.585 µM. The TGI [17] was 3.71 µM, the GI50 [18] was 3.15 µM and the TGI [18] was 9.94 µM. For the same compound, the GI50 [19] was 0.304 µM, the TGI [19] was 0.97 µM and the GI50 [20] was 0.845 µM. It also gave a TGI [20] of 12.3 µM, a GI50 [21] of 1.25 µM and a TGI [21] of 10.2 µM. The GI50 [22] was 1.6 µM, the TGI [22] was greater than 100 µM and the GI50 [23] was 2.68 µM. For the same compound, the TGI [23] was 6.49 µM, the GI50 [24] was 2.75 µM and the TGI [24] was 6.81 µM. For the same compound, the GI50 [25] was 2.42 µM, the TGI [25] was 11.1 µM and the GI50 [26] was 3.13 µM. For the same compound, the TGI [26] was 20.4 µM, the GI50 [27] was 1.36 µM and the TGI [27] was 9.59 µM. The GI50 [28] was 2.52 µM, the TGI [28] was 8.57 µM and the GI50 [29] was 0.343 µM. For the same compound, the TGI [29] was 2.68 µM, the GI50 [30] was 1.96 µM and the TGI [30] was 3.95 µM. The GI50 [31] was 2.53 µM, the TGI [31] was 10.3 µM and the GI50 [32] was 0.366 µM. The TGI [32] was 10.8 µM, the GI50 [33] was 0.822 µM and the TGI [33] was 5.3 µM. For the same compound, the GI50 [34] was 2.27 µM, the TGI [34] was 10.2 µM and the GI50 [35] was 0.651 µM. For the same compound, the TGI [35] was 5.65 µM, the GI50 [36] was 0.608 µM and the TGI [36] was 9.02 µM. The GI50 [37] was 0.326 µM, the TGI [37] was 1.27 µM and the GI50 [38] was 0.282 µM. The TGI [38] was 0.901 µM, the GI50 [39] was 0.354 µM and the TGI [39] was 2.47 µM. For the same compound, the GI50 [40] was 0.571 µM, the TGI [40] was 4.03 µM and the GI50 [41] was 1 µM. It also gave a TGI [41] of 2.52 µM, a GI50 [42] of 1.53 µM and a TGI [42] of 3.45 µM. It also gave a GI50 [43] of 0.834 µM, a TGI [43] of 3.52 µM and a GI50 [44] of 0.55 µM. It also gave a TGI [44] of 3.29 µM, a GI50 [45] of 1.37 µM and a TGI [45] of 8.06 µM. The GI50 [46] was 0.5 µM, the TGI [46] was 6.81 µM and the GI50 [47] was 1.33 µM. The TGI [47] was 6.64 µM, the GI50 [48] was 2.38 µM and the TGI [48] was 15.3 µM. The GI50 [49] was 0.661 µM, the TGI [49] was 3.56 µM and the GI50 [50] was 0.281 µM. It also gave a TGI [50] of 1.34 µM, a GI50 [51] of 2.78 µM and a TGI [51] of 7.7 µM. The GI50 [52] was 0.21 µM, the TGI [52] was 0.492 µM and the GI50 [53] was 0.343 µM. It also gave a TGI [53] of 2.83 µM, a GI50 [54] of 0.302 µM and a TGI [54] of 4.12 µM. The GI50 [55] was 1.62 µM, the TGI [55] was 6.95 µM and the GI50 [56] was 0.919 µM. For the same compound, the TGI [56] was 8 µM, the GI50 [57] was 1.12 µM and the TGI [57] was 10.4 µM. The GI50 [58] was 0.559 µM and the TGI [58] was 11.7 µM.
